Laboratory results published in PubChem BioAssay AID2060509 (Molecular Pharmacology Branch, DTP, NCI, 2025).

Tested on: 485176-168-R4-J1-PDC spheroids with HUVEC/MSC, viability
Assay: Anticancer human tumor 485176-168-R4-J1-PDC patient-derived pancreatic adenocarcinoma cell line growth inhibition [GQUAD]
Conditions: for IC50: curve of first compound; for viability, T/C: stronger effect = lower value
Method in brief: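 Multi-cell-type spheroids of tumor cells with HUVEC and mesenchymal stem cells, treated with drug combinations. Concentrations descend in half-log steps from near clinical Cmax, or from 10 microM where Cmax is unknown; viability read-out.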

[1] = second compound 0.0316 µM, first compound 0.0316 µM
[2] = second compound 0.0316 µM, first compound 0.316 µM
[3] = second compound 0.1 µM, first compound 0.0316 µM
[4] = second compound 0.1 µM, first compound 0.316 µM
[5] = second compound 0.316 µM, first compound 0.0316 µM
[6] = second compound 0.316 µM, first compound 0.316 µM
[7] = second compound 1 µM, first compound 0.0316 µM
[8] = second compound 1 µM, first compound 0.316 µM
[9] = second compound 3.16 µM, first compound 0.0316 µM
[10] = second compound 3.16 µM, first compound 0.316 µM
[11] = second compound 10 µM, first compound 0.0316 µM
[12] = second compound 10 µM, first compound 0.316 µM
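Note: spheroids exposed to compounds for seven days before readout.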
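Throughout, for viability, T/C: percent viability relative to DMSO vehicle control wells as 100%.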

Cn1ncnc1[C@H]1c2n[nH]c(=O)c3cc(F)cc(c23)N[C@@H]1c1ccc(F)cc1 + Cc1[nH]c2ccc(F)cc2c1-c1nc2c3cccnc3c3ncccc3c2[nH]1
IC50 (second compound 0.0316 µM): > 316 nM
IC50 (second compound 0.1 µM): > 316 nM
IC50 (second compound 0.316 µM): > 316 nM
IC50 (second compound 1 µM): > 316 nM
IC50 (second compound 3.16 µM): > 316 nM
IC50 (second compound 10 µM): > 316 nM
viability, T/C (second compound 0.0316 µM, first compound 0.000999 µM): 109%
viability, T/C (second compound 0.0316 µM, first compound 0.00316 µM): 80.7%
viability, T/C (second compound 0.0316 µM, first compound 0.00999 µM): 103%
viability, T/C [1]: 86.6%
viability, T/C (second compound 0.0316 µM, first compound 0.0999 µM): 91.8%
viability, T/C [2]: 109%
viability, T/C (second compound 0.1 µM, first compound 0.000999 µM): 90.9%
viability, T/C (second compound 0.1 µM, first compound 0.00316 µM): 92.2%
viability, T/C (second compound 0.1 µM, first compound 0.00999 µM): 88.3%
viability, T/C [3]: 109%
viability, T/C (second compound 0.1 µM, first compound 0.0999 µM): 93.4%
viability, T/C [4]: 99.5%
viability, T/C (second compound 0.316 µM, first compound 0.000999 µM): 78.3%
viability, T/C (second compound 0.316 µM, first compound 0.00316 µM): 95.6%
viability, T/C (second compound 0.316 µM, first compound 0.00999 µM): 101%
viability, T/C [5]: 117%
viability, T/C (second compound 0.316 µM, first compound 0.0999 µM): 97.9%
viability, T/C [6]: 84.4%
viability, T/C (second compound 1 µM, first compound 0.000999 µM): 77.2%
viability, T/C (second compound 1 µM, first compound 0.00316 µM): 90.2%
viability, T/C (second compound 1 µM, first compound 0.00999 µM): 94.3%
viability, T/C [7]: 90.5%
viability, T/C (second compound 1 µM, first compound 0.0999 µM): 87.2%
viability, T/C [8]: 88.9%
viability, T/C (second compound 3.16 µM, first compound 0.000999 µM): 85.5%
viability, T/C (second compound 3.16 µM, first compound 0.00316 µM): 89.3%
viability, T/C (second compound 3.16 µM, first compound 0.00999 µM): 86.2%
viability, T/C [9]: 79.7%
viability, T/C (second compound 3.16 µM, first compound 0.0999 µM): 96.4%
viability, T/C [10]: 85.1%
viability, T/C (second compound 10 µM, first compound 0.000999 µM): 106%
viability, T/C (second compound 10 µM, first compound 0.00316 µM): 86.2%
viability, T/C (second compound 10 µM, first compound 0.00999 µM): 89.5%
viability, T/C [11]: 77.9%
viability, T/C (second compound 10 µM, first compound 0.0999 µM): 91.7%
viability, T/C [12]: 78.5%

COc1cccc2c1C(=O)c1c(O)c3c(c(O)c1C2=O)CC(O)(C(=O)CO)CC3OC1CC(N)C(O)C(C)O1 (centres undefined) + CN(C)c1ccc(Nc2c3ccc(NC(=O)CCN4CCCC4)cc3nc3cc(NC(=O)CCN4CCCC4)ccc23)cc1
IC50 (second compound 0.0316 µM): 271 nM
IC50 (second compound 0.1 µM): 263 nM
IC50 (second compound 0.316 µM): 417 nM
IC50 (second compound 1 µM): 412 nM
IC50 (second compound 3.16 µM): 396 nM
IC50 (second compound 10 µM): 305 nM
viability, T/C [1]: 104%
viability, T/C (second compound 0.0316 µM, first compound 0.1 µM): 65.5%
viability, T/C [2]: 59.2%
viability, T/C (second compound 0.0316 µM, first compound 1 µM): 15.4%
viability, T/C (second compound 0.0316 µM, first compound 3.16 µM): 3.54%
viability, T/C (second compound 0.0316 µM, first compound 10 µM): 0.22%
viability, T/C [3]: 95.2%
viability, T/C (second compound 0.1 µM, first compound 0.1 µM): 70.9%
viability, T/C [4]: 49.2%
viability, T/C (second compound 0.1 µM, first compound 1 µM): 17.8%
viability, T/C (second compound 0.1 µM, first compound 3.16 µM): 2.43%
viability, T/C (second compound 0.1 µM, first compound 10 µM): 0.16%
viability, T/C [5]: 84.9%
viability, T/C (second compound 0.316 µM, first compound 0.1 µM): 67%
viability, T/C [6]: 62%
viability, T/C (second compound 0.316 µM, first compound 1 µM): 22.5%
viability, T/C (second compound 0.316 µM, first compound 3.16 µM): 3.97%
viability, T/C (second compound 0.316 µM, first compound 10 µM): 0.2%
viability, T/C [7]: 99.5%
viability, T/C (second compound 1 µM, first compound 0.1 µM): 78.2%
viability, T/C [8]: 64.1%
viability, T/C (second compound 1 µM, first compound 1 µM): 17.4%
viability, T/C (second compound 1 µM, first compound 3.16 µM): 4.15%
viability, T/C (second compound 1 µM, first compound 10 µM): 0.16%
viability, T/C [9]: 84.2%
viability, T/C (second compound 3.16 µM, first compound 0.1 µM): 83.2%
viability, T/C [10]: 53.4%
viability, T/C (second compound 3.16 µM, first compound 1 µM): 25.7%
viability, T/C (second compound 3.16 µM, first compound 3.16 µM): 2.96%
viability, T/C (second compound 3.16 µM, first compound 10 µM): 0.21%
viability, T/C [11]: 72.2%
viability, T/C (second compound 10 µM, first compound 0.1 µM): 68.4%
viability, T/C [12]: 48.5%
viability, T/C (second compound 10 µM, first compound 1 µM): 22.9%
viability, T/C (second compound 10 µM, first compound 3.16 µM): 5.36%
viability, T/C (second compound 10 µM, first compound 10 µM): 0.33%
